How the values were obtained:
GTL16 cells = assay: 96-well XTT cell survival assay (GTL16 cells); format: cell-based; settings: Homo sapiens, GTL 16, 72 hours
Experimental: GTL16 cells were maintained in DMEM Medium supplemented with 10% fetal bovine serum (FBS) 2 mM L-Glutamine and 100 units penicillin/100 μg streptomycin, at 37° C. in 5% CO2.
Compounds were tested in the following assays in duplicate.
96-well XTT assay (GTL16 cells): One day prior to assay the growth media was aspirated off and assay media was added to cells. On the day of the assay, the cells were grown in assay media containing various concentrations of compounds (duplicates) on a 96-well flat bottom plate for 72 hours at 37° C. in 5% CO2. The starting cell number was 5000 cells per well and volume was 120 μl. At the end of the 72-hour incubation, 40 μl of XTT labeling mixture (50:1 solution of sodium 3′-[1-(phenylaminocarbonyl)-3,4-tetrazolium]-bis (4-methoxy-6-nitro) benzene sulfonic acid hydrate and Electron-coupling reagent: PMS (N-methyl dibenzopyrazine methyl sulfate) were added to each well of the plate. After an additional 5 hours of incubation at 37° C., the absorbance reading at 450 nm with a background correction of 650 nm was measured with a spectrophotometer.

ABL1 T315I = ABL1 T315I (Homo sapiens, UniProt P00519, T315I); assay: SelectScreen Kinase Profiling ABL1 T315I; format: biochemical
From the text: (§1) SelectScreen™ is a trademark screening assay protocol for kinases developed by Invitrogen Corporation, Madison, Wis. Details on assay conditions can be found on the company's website.

ABL1 Y253F = ABL1 Y253F (Homo sapiens, UniProt P00519, Y253F); assay: SelectScreen Kinase Profiling ABL1 Y253F; format: biochemical
From the text: as §1

ALK = ALK (Homo sapiens, UniProt Q9UM73); assay: SelectScreen Kinase Profiling ALK; format: biochemical
From the text: as §1

AURKA (Aurora A) = AURKA (Aurora A) (Homo sapiens, UniProt O14965); assay: SelectScreen Kinase Profiling AURKA; format: biochemical
From the text: as §1

AURKB (Aurora B) = AURKB (Aurora B) (Homo sapiens, UniProt Q96GD4); assay: SelectScreen Kinase Profiling AURKB; format: biochemical
From the text: as §1

BRAF V599E = BRAF V599E (Homo sapiens, UniProt P15056, V600E); assay: SelectScreen Kinase Profiling BRAF V599E; format: biochemical
From the text: as §1

CDK1/cyclin B = CDK1/cyclin B (Homo sapiens, UniProt P06493); assay: SelectScreen Kinase Profiling CDK1/cyclin B; format: biochemical
From the text: as §1

CSF1R (FMS) = CSF1R (FMS) (Homo sapiens, UniProt P07333); assay: SelectScreen Kinase Profiling CSF1R; format: biochemical
From the text: as §1

EGFR (ErbB1) = EGFR (ErbB1) (Homo sapiens, UniProt P00533); assay: SelectScreen Kinase Profiling EGFR; format: biochemical
From the text: as §1

EPHA2 = EPHA2 (Homo sapiens, UniProt P29317); assay: SelectScreen Kinase Profiling EPHA2; format: biochemical
From the text: as §1

FES (FPS) = FES (FPS) (Homo sapiens, UniProt P07332); assay: SelectScreen Kinase Profiling FES; format: biochemical
From the text: as §1

FLT3 D835Y = FLT3 D835Y (Homo sapiens, UniProt P36888, D835Y); assay: SelectScreen Kinase Profiling FLT3 D835Y; format: biochemical
From the text: as §1

GRK4 = GRK4 (Homo sapiens, UniProt P32298); assay: SelectScreen Kinase Profiling GRK4; format: biochemical
From the text: as §1

GSK3B (GSK3 beta) = GSK3B (GSK3 beta) (Homo sapiens, UniProt P49841); assay: SelectScreen Kinase Profiling GSK3B; format: biochemical
From the text: as §1

HCK = HCK (Homo sapiens, UniProt P08631); assay: SelectScreen Kinase Profiling HCK; format: biochemical
From the text: as §1

IGF1R = IGF1R (Homo sapiens, UniProt P08069); assay: SelectScreen Kinase Profiling IGF1R; format: biochemical
From the text: as §1

IKBKB (IKK beta) = IKBKB (IKK beta) (Homo sapiens, UniProt O14920); assay: SelectScreen Kinase Profiling IKBKB; format: biochemical
From the text: as §1

JAK2 JH1 JH2 V617F = molecular target: T1, JAK2 JH1 JH2 V617F (Homo sapiens, UniProt O60674, V617F); assay: SelectScreen Kinase Profiling JAK2 JH1 JH2 V617F; format: biochemical
T1 construct: JAK2 JH1 JH2 V617F
From the text: as §1

KIT T670I = KIT T670I (Homo sapiens, UniProt P10721, T670I); assay: SelectScreen Kinase Profiling KIT T670I; format: biochemical
From the text: as §1

MAP2K1 (MEK1) = MAP2K1 (MEK1) (Homo sapiens, UniProt Q02750); assay: SelectScreen Kinase Profiling MAP2K1; format: biochemical
From the text: as §1

MAP4K4 (HGK) = MAP4K4 (HGK) (Homo sapiens, UniProt O95819); assay: SelectScreen Kinase Profiling MAP4K4; format: biochemical
From the text: as §1

MAPK1 (ERK2) = MAPK1 (ERK2) (Homo sapiens, UniProt P28482); assay: SelectScreen Kinase Profiling MAPK1; format: biochemical
From the text: as §1

MST1R (RON) = MST1R (RON) (Homo sapiens, UniProt Q04912); assay: SelectScreen Kinase Profiling MST1R; format: biochemical
From the text: as §1

NTRK3 (TRKC) = NTRK3 (TRKC) (Homo sapiens, UniProt Q16288); assay: SelectScreen Kinase Profiling NTRK3; format: biochemical
From the text: as §1

PDK1 = PDK1 (Homo sapiens, UniProt O15530); assay: SelectScreen Kinase Profiling PDK1; format: biochemical
From the text: as §1

PIM1 = PIM1 (Homo sapiens, UniProt P11309); assay: SelectScreen Kinase Profiling PIM1; format: biochemical
From the text: as §1

PLK1 = PLK1 (Homo sapiens, UniProt P53350); assay: SelectScreen Kinase Profiling PLK1; format: biochemical
From the text: as §1

PRKCD (PKC delta) = PRKCD (PKC delta) (Homo sapiens, UniProt Q05655); assay: SelectScreen Kinase Profiling PRKCD; format: biochemical
From the text: as §1

PTK2B (FAK2) = PTK2B (FAK2) (Homo sapiens, UniProt Q14289); assay: SelectScreen Kinase Profiling PTK2B; format: biochemical
From the text: as §1

ROS1 = ROS1 (Homo sapiens, UniProt P08922); assay: SelectScreen Kinase Profiling ROS1; format: biochemical
From the text: as §1

RPS6KB1 (p70S6K) = RPS6KB1 (p70S6K) (Homo sapiens, UniProt P23443); assay: SelectScreen Kinase Profiling RPS6KB1; format: biochemical
From the text: as §1

TEK (Tie2) = TEK (Tie2) (Homo sapiens, UniProt Q02763); assay: SelectScreen Kinase Profiling TEK; format: biochemical
From the text: as §1

TYRO3 (RSE) = TYRO3 (RSE) (Homo sapiens, UniProt Q06418); assay: SelectScreen Kinase Profiling TYRO3; format: biochemical
From the text: as §1

Chain of IKBKB (IKK beta) (O14920 whole entry): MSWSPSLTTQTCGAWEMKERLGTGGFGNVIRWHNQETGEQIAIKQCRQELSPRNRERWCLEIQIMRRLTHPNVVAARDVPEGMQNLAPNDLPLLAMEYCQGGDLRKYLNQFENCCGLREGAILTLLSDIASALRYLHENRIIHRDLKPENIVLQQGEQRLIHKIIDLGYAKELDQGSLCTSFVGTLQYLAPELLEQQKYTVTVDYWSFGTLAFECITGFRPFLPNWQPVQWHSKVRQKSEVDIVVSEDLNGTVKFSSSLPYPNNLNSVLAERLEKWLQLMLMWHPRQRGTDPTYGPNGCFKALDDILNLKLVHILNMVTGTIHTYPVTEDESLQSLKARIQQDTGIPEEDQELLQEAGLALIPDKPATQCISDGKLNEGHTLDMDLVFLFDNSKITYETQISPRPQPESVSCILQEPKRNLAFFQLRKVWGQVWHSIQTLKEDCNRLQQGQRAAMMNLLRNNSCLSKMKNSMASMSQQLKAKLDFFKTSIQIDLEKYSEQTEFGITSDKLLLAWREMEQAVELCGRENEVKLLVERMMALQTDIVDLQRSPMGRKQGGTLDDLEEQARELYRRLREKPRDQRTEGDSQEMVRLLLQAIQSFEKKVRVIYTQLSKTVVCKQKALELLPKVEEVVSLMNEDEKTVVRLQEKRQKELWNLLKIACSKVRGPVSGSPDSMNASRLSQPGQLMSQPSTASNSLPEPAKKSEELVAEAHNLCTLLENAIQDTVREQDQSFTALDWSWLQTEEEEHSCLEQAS
T1 sequence (O60674 532-1132 V617F limits assumed): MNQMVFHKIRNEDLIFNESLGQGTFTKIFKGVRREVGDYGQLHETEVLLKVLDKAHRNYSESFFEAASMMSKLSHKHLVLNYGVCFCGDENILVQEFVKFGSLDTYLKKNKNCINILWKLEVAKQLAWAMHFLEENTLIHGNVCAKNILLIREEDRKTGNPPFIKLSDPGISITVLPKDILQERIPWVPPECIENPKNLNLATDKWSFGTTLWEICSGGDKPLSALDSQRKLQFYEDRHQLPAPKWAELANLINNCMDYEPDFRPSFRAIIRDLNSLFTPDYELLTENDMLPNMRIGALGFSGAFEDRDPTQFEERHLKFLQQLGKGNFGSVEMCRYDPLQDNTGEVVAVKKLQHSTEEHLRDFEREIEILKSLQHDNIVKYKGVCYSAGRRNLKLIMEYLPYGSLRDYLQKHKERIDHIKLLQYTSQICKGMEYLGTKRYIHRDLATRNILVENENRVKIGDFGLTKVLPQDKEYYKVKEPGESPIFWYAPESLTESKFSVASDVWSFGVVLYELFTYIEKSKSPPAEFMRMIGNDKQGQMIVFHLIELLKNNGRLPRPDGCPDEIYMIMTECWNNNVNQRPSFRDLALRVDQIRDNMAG
Chain of TEK (Tie2) (Q02763 23-1124): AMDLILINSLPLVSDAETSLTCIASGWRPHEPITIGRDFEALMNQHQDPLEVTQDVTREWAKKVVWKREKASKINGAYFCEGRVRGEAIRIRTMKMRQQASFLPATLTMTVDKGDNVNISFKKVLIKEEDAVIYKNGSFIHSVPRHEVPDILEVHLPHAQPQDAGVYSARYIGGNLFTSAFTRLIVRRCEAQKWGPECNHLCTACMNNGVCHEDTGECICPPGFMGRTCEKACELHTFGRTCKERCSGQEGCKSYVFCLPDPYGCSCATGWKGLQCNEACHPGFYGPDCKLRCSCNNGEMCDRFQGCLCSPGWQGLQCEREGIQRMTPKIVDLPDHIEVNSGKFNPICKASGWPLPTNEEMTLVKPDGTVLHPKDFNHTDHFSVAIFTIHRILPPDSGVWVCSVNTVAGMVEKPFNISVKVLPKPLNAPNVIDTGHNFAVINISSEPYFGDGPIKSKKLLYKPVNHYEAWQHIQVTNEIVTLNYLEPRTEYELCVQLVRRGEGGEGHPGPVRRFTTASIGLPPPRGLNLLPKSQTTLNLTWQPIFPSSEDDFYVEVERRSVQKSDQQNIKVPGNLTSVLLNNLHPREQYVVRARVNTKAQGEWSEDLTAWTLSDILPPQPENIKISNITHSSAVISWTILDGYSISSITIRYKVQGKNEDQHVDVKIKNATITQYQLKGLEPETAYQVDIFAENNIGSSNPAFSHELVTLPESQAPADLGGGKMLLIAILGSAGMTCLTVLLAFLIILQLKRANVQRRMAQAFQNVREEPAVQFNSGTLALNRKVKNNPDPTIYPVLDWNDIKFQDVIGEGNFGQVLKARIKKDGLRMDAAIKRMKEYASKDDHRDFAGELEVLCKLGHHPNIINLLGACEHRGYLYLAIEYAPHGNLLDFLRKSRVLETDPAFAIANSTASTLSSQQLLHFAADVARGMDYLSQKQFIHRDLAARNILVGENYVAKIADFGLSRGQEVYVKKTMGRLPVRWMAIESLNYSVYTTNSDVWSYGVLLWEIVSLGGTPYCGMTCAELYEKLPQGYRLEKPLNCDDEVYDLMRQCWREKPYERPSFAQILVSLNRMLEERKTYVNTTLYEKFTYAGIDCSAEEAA
Chain of PLK1 (P53350 whole entry): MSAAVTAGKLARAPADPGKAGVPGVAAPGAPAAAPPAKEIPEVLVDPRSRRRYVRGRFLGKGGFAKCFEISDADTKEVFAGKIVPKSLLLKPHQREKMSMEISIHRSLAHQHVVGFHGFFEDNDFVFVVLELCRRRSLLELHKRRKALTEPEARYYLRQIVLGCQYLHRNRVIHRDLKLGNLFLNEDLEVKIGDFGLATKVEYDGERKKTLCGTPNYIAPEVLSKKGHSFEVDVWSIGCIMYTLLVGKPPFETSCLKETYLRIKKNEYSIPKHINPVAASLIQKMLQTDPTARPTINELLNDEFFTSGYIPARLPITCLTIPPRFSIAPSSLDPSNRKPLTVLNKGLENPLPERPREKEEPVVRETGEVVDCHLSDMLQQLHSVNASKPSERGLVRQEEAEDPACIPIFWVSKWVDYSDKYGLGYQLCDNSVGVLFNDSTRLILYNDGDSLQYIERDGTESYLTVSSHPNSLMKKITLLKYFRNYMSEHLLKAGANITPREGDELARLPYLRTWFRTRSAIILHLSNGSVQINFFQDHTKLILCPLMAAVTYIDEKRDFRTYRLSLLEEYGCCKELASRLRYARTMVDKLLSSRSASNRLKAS
Chain of HCK (P08631 whole entry): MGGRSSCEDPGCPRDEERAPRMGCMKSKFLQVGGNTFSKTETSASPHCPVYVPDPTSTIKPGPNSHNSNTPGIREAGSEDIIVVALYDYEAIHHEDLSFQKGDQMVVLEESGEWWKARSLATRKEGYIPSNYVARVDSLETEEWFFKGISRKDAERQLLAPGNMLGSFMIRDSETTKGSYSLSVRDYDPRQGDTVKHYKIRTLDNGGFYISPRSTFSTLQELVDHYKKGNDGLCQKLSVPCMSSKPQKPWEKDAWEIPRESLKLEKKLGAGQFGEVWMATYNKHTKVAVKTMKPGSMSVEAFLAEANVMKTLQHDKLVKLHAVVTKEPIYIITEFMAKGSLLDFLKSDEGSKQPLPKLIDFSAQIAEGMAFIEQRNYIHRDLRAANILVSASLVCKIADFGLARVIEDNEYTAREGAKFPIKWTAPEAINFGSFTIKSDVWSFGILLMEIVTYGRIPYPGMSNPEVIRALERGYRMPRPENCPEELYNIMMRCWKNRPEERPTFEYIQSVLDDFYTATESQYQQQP
Chain of CDK1/cyclin B (P06493 whole entry): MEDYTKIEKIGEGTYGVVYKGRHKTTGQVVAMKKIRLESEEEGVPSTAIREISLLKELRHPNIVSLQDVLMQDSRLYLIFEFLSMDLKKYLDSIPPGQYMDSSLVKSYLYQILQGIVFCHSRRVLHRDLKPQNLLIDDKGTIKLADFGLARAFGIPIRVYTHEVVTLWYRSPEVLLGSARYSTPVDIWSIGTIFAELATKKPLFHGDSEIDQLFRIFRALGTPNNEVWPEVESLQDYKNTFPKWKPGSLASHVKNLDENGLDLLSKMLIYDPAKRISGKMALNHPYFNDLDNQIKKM
Chain of CDK1/cyclin B (P14635 whole entry partner): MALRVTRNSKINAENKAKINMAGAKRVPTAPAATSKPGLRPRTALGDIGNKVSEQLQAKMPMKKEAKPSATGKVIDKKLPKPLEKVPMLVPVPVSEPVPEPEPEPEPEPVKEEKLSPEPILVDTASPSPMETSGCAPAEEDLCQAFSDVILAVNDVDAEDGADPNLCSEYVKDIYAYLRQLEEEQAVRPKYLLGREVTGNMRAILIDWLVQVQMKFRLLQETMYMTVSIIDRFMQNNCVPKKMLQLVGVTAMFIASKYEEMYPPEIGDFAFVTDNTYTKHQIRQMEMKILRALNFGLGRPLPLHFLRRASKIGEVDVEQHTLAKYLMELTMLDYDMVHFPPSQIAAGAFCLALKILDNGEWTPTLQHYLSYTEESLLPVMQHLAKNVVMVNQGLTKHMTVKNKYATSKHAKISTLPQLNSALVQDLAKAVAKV
Chain of PIM1 (P11309 whole entry): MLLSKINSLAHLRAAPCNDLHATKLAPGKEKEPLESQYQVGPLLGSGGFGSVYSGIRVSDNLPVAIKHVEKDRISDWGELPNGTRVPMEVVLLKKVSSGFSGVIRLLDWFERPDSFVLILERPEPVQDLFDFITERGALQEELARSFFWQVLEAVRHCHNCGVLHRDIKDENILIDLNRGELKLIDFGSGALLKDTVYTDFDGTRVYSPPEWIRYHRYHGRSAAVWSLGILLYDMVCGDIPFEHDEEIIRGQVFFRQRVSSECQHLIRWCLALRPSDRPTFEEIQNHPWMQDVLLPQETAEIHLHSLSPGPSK
Chain of MAP2K1 (MEK1) (Q02750 whole entry): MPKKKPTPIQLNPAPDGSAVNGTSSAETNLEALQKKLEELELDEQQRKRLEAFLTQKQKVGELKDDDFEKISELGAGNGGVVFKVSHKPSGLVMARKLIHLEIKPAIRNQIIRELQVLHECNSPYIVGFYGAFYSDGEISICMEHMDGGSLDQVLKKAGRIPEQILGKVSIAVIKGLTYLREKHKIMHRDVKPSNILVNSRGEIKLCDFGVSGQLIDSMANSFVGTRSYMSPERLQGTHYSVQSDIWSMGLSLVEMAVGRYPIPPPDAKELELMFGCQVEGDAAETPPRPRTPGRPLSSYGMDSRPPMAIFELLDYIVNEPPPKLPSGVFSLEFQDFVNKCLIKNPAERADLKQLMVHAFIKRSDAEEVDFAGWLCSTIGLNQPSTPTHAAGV

Compound | IC50 (GTL16 cells) | inhibition at 1 µM (ABL1 T315I) | inhibition at 1 µM (ABL1 Y253F) | inhibition at 1 µM (ALK) | inhibition at 1 µM (AURKA (Aurora A)) | inhibition at 1 µM (AURKB (Aurora B)) | inhibition at 1 µM (BRAF V599E) | inhibition at 1 µM (CDK1/cyclin B) | inhibition at 1 µM (CSF1R (FMS)) | inhibition at 1 µM (EGFR (ErbB1)) | inhibition at 1 µM (EPHA2) | inhibition at 1 µM (FES (FPS)) | inhibition at 1 µM (FLT3 D835Y) | inhibition at 1 µM (GRK4) | inhibition at 1 µM (GSK3B (GSK3 beta)) | inhibition at 1 µM (HCK) | inhibition at 1 µM (IGF1R) | inhibition at 1 µM (IKBKB (IKK beta)) | inhibition at 1 µM (JAK2 JH1 JH2 V617F) | inhibition at 1 µM (KIT T670I) | further results
Cc1ccc2nnc(Sc3ccc4ncc(-c5cnn(C)c5)cc4c3)n2n1 [Compound 41, 3-(1-Methyl-1H-pyrazol-4-yl)-6-(6-methyl-[1,2,4]triazolo[4,3-b]pyridazin-3-ylsulfanyl)-quinoline] | ≤ 100 nM | 47% | 30% | 23% | 49% | 61% | 7% | 17% | 79% | 0% | 2% | 1% | 35% | -4% | 1% | 9% | 6% | 1% | 9% | 4% | inhibition at 1 µM (MAP2K1 (MEK1)): 3%; inhibition at 1 µM (MAP4K4 (HGK)): 27%; inhibition at 1 µM (MAPK1 (ERK2)): 0%; inhibition at 1 µM (MST1R (RON)): 53%; inhibition at 1 µM (NTRK3 (TRKC)): 85%; inhibition at 1 µM (PDK1): 6%; inhibition at 1 µM (PIM1): 0%; inhibition at 1 µM (PLK1): 0%; inhibition at 1 µM (PRKCD (PKC delta)): 5%; inhibition at 1 µM (PTK2B (FAK2)): 12%; inhibition at 1 µM (ROS1): 41%; inhibition at 1 µM (RPS6KB1 (p70S6K)): 5%; inhibition at 1 µM (TEK (Tie2)): 4%; inhibition at 1 µM (TYRO3 (RSE)): 22%
Cn1cc(-c2ccc3nnc(Sc4ccc5ncccc5c4)n3n2)cn1 [Compound 4, 6-[6-(1-Methyl-1H-pyrazol-4-yl)-[1,2,4]triazolo[4,3-b]pyridazin-3-ylsulfanyl]-quinoline] | ≤ 100 nM | 11% | 20% | -10% | 18% | 7% | 36% | 5% | 19% | -2% | -23% | 5% | 8% | 2% | 5% | 8% | -3% | -5% | -11% | -12% | inhibition at 1 µM (MAP2K1 (MEK1)): 16%; inhibition at 1 µM (MAP4K4 (HGK)): -1%; inhibition at 1 µM (MAPK1 (ERK2)): 9%; inhibition at 1 µM (MST1R (RON)): 9%; inhibition at 1 µM (NTRK3 (TRKC)): 7%; inhibition at 1 µM (PDK1): 7%; inhibition at 1 µM (PIM1): 4%; inhibition at 1 µM (PLK1): 0%; inhibition at 1 µM (PRKCD (PKC delta)): 4%; inhibition at 1 µM (PTK2B (FAK2)): 6%; inhibition at 1 µM (ROS1): 7%; inhibition at 1 µM (RPS6KB1 (p70S6K)): 3%; inhibition at 1 µM (TEK (Tie2)): 8%; inhibition at 1 µM (TYRO3 (RSE)): 19%

Reference: patent US8507489B2, “Bicyclic triazoles as protein kinase modulators” (SGX Pharmaceuticals, Inc., priority 2006, dated 2013)
